# Data taken from PMC6133161, “Thiazoles with cyclopropyl fragment as antifungal, anticonvulsant, and anti-Toxoplasma gondii agents: synthesis, toxicity evaluation, and molecular docking study” (Medicinal Chemistry Research, 2018).
# System: C. pulcherrima
# Assay: Broth microdilution MIC/MFC, clinical isolate
# Assay type: cell-based
# Details: C. pulcherrima clinical strain; read-out: MFC
# Source text: (§1) In the study of antifungal activity of the compounds 3a–3j, 15 clinical strains of different species of yeasts from Candida species, namely C. albicans, C. dubliniensis C. famata, C. inconspicua, C. krusei, C. tropicalis, C. glabrata, C. lambica, C. kefyr, C. lusitaniae, C. parapsilosis, C. guilliermondii, C. lusitaniae, C. pulcherrima and C. sake were also used. These fungi were isolated by the author (from Department of Pharmaceutical Microbiology of Medical University in Lublin, Poland) from different clinical materials, e.g., from upper respiratory tract of hospitalized patients including cancer patients (i.e., with non-small cell lung cancer or hematological malignancies). Some patients were after pre-operative or post-operative chemotherapy (treated with etoposide or cis-platin given in doses according to the standard procedures), patients with chronic hepatitis C (undergoing peginterferon and ribavirin therapy or without antiviral therapy), patients with diabetes, elderly people, aged of 65 years old or older, staying in close population, such as a care centre and people staying outside the home care. The Ethical Committee of the Medical University of Lublin approved the study protocol (No. KE-0254/75/2011). The isolates were identified by standard diagnostic methods—biochemical microtest, e.g., API 20C AUX, ID 32C, API Candida (bioMérieux) on the basis of assimilation of various substrates. All the used microbial cultures were first subcultured on nutrient agar or Sabouraud agar for bacteria and fungi, respectively. The RPMI 1640 with MOPS (for fungi) were inoculated with the suspensions of fungal species. Microbial suspensions were prepared in sterile saline (0.85% NaCl) with an optical density of 0.5 McFarland standard scale (Wiegand et al. [2008]). Samples containing examined compounds were dissolved in dimethyl sulfoxide (DMSO). Furthermore, fungal suspensions were put onto Petri dishes with solid media containing 2 mg/ml of the tested compounds followed incubation under appropriate conditions. The inhibition of microbial growth was judged by comparison with a control culture prepared without any sample tested. Nystatin (Sigma) was used as a reference antifungal compound. Subsequently MIC minimal inhibitory concentration (MIC) of the compounds was examined by the microdilution broth method, using their two-fold dilutions in RPMI 1640 broth with MOPS prepared in 96-well polystyrene plates. Final concentrations of the compounds ranged from 1000 to 0.0038 µg/ml. Microbial suspensions were prepared in sterile saline with an optical density of 0.5 McFarland standard. Next fungal suspension was added per each well containing broth and various concentrations of the examined compounds. After incubation, the MIC was assessed spectrophotometric as the lowest concentration of the samples showing complete fungal growth inhibition. Appropriate DMSO, growth and sterile controls were carried out. The medium with no tested substances was used as a control (Wiegand et al. [2008]). The minimal fungicidal concentration (MFC) are defined as the lowest concentration of the compounds that is required to kill a particular fungal species. MFC was determined by removing the culture using for MIC determinations from each well and spotting onto appropriate agar medium. The plates were incubated. The lowest compounds concentration with no visible growth observed was assessed as a fungicidal concentration. All the experiments were repeated three times and representative data are presented.
# (§2) The MFC/MIC ratios were calculated in order to determine fungicidal (MFC/MIC ≤ 4) or fungistatic (MFC/MIC > 4) effect of the tested compounds (O’Donnell et al. [2010]).
row,SMILES,MFC [µg/mL]
1,"O=[N+]([O-])c1ccc(-c2csc(N/N=C/C3CC3)n2)cc1 [Compound 3j, (E)-2-(2-(Cyclopropylmethylene)hydrazinyl)-4-(4-nitrophenyl)thiazole]",> 1000

# Same assay, conditions: C. pulcherrima clinical strain; read-out: MIC
row,MIC [µg/mL],SMILES
1,7.81,"O=[N+]([O-])c1ccc(-c2csc(N/N=C/C3CC3)n2)cc1 [Compound 3j, (E)-2-(2-(Cyclopropylmethylene)hydrazinyl)-4-(4-nitrophenyl)thiazole]"

# System: C. lusitaniae
# Assay: Broth microdilution MIC/MFC, clinical isolate
# Assay type: cell-based
# Details: Clavispora lusitaniae; C. lusitaniae clinical strain; read-out: MFC
# Source text: as §1, §2
row,SMILES,MFC [µg/mL]
1,"O=[N+]([O-])c1ccc(-c2csc(N/N=C/C3CC3)n2)cc1 [Compound 3j, (E)-2-(2-(Cyclopropylmethylene)hydrazinyl)-4-(4-nitrophenyl)thiazole]",0.98

# Same assay, conditions: Clavispora lusitaniae; C. lusitaniae clinical strain; read-out: MIC
row,MIC [µg/mL],SMILES
1,0.48,"O=[N+]([O-])c1ccc(-c2csc(N/N=C/C3CC3)n2)cc1 [Compound 3j, (E)-2-(2-(Cyclopropylmethylene)hydrazinyl)-4-(4-nitrophenyl)thiazole]"

# System: C. parapsilosis
# Assay: Broth microdilution MIC/MFC, clinical isolate
# Assay type: cell-based
# Details: Lodderomyces parapsilosis; C. parapsilosis clinical strain; read-out: MFC
# Source text: as §1, §2
row,SMILES,MFC [µg/mL]
1,"O=[N+]([O-])c1ccc(-c2csc(N/N=C/C3CC3)n2)cc1 [Compound 3j, (E)-2-(2-(Cyclopropylmethylene)hydrazinyl)-4-(4-nitrophenyl)thiazole]",1.95

# Same assay, conditions: Lodderomyces parapsilosis; C. parapsilosis clinical strain; read-out: MIC
row,MIC [µg/mL],SMILES
1,0.48,"O=[N+]([O-])c1ccc(-c2csc(N/N=C/C3CC3)n2)cc1 [Compound 3j, (E)-2-(2-(Cyclopropylmethylene)hydrazinyl)-4-(4-nitrophenyl)thiazole]"

# System: C. dubliniensis
# Assay: Broth microdilution MIC/MFC, clinical isolate
# Assay type: cell-based
# Details: Candida dubliniensis; C. dubliniensis clinical strain; read-out: MFC
# Source text: as §1, §2
row,SMILES,MFC [µg/mL]
1,"O=[N+]([O-])c1ccc(-c2csc(N/N=C/C3CC3)n2)cc1 [Compound 3j, (E)-2-(2-(Cyclopropylmethylene)hydrazinyl)-4-(4-nitrophenyl)thiazole]",0.48

# Same assay, conditions: Candida dubliniensis; C. dubliniensis clinical strain; read-out: MIC
row,MIC [µg/mL],SMILES
1,0.24,"O=[N+]([O-])c1ccc(-c2csc(N/N=C/C3CC3)n2)cc1 [Compound 3j, (E)-2-(2-(Cyclopropylmethylene)hydrazinyl)-4-(4-nitrophenyl)thiazole]"

# System: C. famata
# Assay: Broth microdilution MIC/MFC, clinical isolate
# Assay type: cell-based
# Details: Debaryomyces hansenii; C. famata clinical strain; read-out: MFC
# Source text: as §1, §2
row,SMILES,MFC [µg/mL]
1,"O=[N+]([O-])c1ccc(-c2csc(N/N=C/C3CC3)n2)cc1 [Compound 3j, (E)-2-(2-(Cyclopropylmethylene)hydrazinyl)-4-(4-nitrophenyl)thiazole]",31.2

# Same assay, conditions: Debaryomyces hansenii; C. famata clinical strain; read-out: MIC
row,MIC [µg/mL],SMILES
1,1.95,"O=[N+]([O-])c1ccc(-c2csc(N/N=C/C3CC3)n2)cc1 [Compound 3j, (E)-2-(2-(Cyclopropylmethylene)hydrazinyl)-4-(4-nitrophenyl)thiazole]"

# System: C. tropicalis
# Assay: Broth microdilution MIC/MFC, clinical isolate
# Assay type: cell-based
# Details: Candida tropicalis; C. tropicalis clinical strain; read-out: MFC
# Source text: as §1, §2
row,SMILES,MFC [µg/mL]
1,"O=[N+]([O-])c1ccc(-c2csc(N/N=C/C3CC3)n2)cc1 [Compound 3j, (E)-2-(2-(Cyclopropylmethylene)hydrazinyl)-4-(4-nitrophenyl)thiazole]",0.015

# Same assay, conditions: Candida tropicalis; C. tropicalis clinical strain; read-out: MIC
row,MIC [µg/mL],SMILES
1,0.015,"O=[N+]([O-])c1ccc(-c2csc(N/N=C/C3CC3)n2)cc1 [Compound 3j, (E)-2-(2-(Cyclopropylmethylene)hydrazinyl)-4-(4-nitrophenyl)thiazole]"

# System: C. sake
# Assay: Broth microdilution MIC/MFC, clinical isolate
# Assay type: cell-based
# Details: Fermentozyma sake; C. sake clinical strain; read-out: MFC
# Source text: as §1, §2
row,SMILES,MFC [µg/mL]
1,"O=[N+]([O-])c1ccc(-c2csc(N/N=C/C3CC3)n2)cc1 [Compound 3j, (E)-2-(2-(Cyclopropylmethylene)hydrazinyl)-4-(4-nitrophenyl)thiazole]",0.98

# Same assay, conditions: Fermentozyma sake; C. sake clinical strain; read-out: MIC
row,MIC [µg/mL],SMILES
1,0.24,"O=[N+]([O-])c1ccc(-c2csc(N/N=C/C3CC3)n2)cc1 [Compound 3j, (E)-2-(2-(Cyclopropylmethylene)hydrazinyl)-4-(4-nitrophenyl)thiazole]"

# System: C. albicans
# Assay: Broth microdilution MIC/MFC, clinical isolate
# Assay type: cell-based
# Details: Candida albicans; C. albicans clinical strain; read-out: MFC
# Source text: as §1, §2
row,SMILES,MFC [µg/mL]
1,"O=[N+]([O-])c1ccc(-c2csc(N/N=C/C3CC3)n2)cc1 [Compound 3j, (E)-2-(2-(Cyclopropylmethylene)hydrazinyl)-4-(4-nitrophenyl)thiazole]",0.48

# Same assay, conditions: Candida albicans; C. albicans clinical strain; read-out: MIC
row,MIC [µg/mL],SMILES
1,0.24,"O=[N+]([O-])c1ccc(-c2csc(N/N=C/C3CC3)n2)cc1 [Compound 3j, (E)-2-(2-(Cyclopropylmethylene)hydrazinyl)-4-(4-nitrophenyl)thiazole]"

# System: C. kefyr
# Assay: Broth microdilution MIC/MFC, clinical isolate
# Assay type: cell-based
# Details: Kluyveromyces marxianus; C. kefyr clinical strain; read-out: MFC
# Source text: as §1, §2
row,SMILES,MFC [µg/mL]
1,"O=[N+]([O-])c1ccc(-c2csc(N/N=C/C3CC3)n2)cc1 [Compound 3j, (E)-2-(2-(Cyclopropylmethylene)hydrazinyl)-4-(4-nitrophenyl)thiazole]",> 1000

# Same assay, conditions: Kluyveromyces marxianus; C. kefyr clinical strain; read-out: MIC
row,MIC [µg/mL],SMILES
1,125,"O=[N+]([O-])c1ccc(-c2csc(N/N=C/C3CC3)n2)cc1 [Compound 3j, (E)-2-(2-(Cyclopropylmethylene)hydrazinyl)-4-(4-nitrophenyl)thiazole]"

# System: C. inconspicua
# Assay: Broth microdilution MIC/MFC, clinical isolate
# Assay type: cell-based
# Details: Pichia inconspicua; C. inconspicua clinical strain; read-out: MFC
# Source text: as §1, §2
row,SMILES,MFC [µg/mL]
1,"O=[N+]([O-])c1ccc(-c2csc(N/N=C/C3CC3)n2)cc1 [Compound 3j, (E)-2-(2-(Cyclopropylmethylene)hydrazinyl)-4-(4-nitrophenyl)thiazole]",1.95

# Same assay, conditions: Pichia inconspicua; C. inconspicua clinical strain; read-out: MIC
row,MIC [µg/mL],SMILES
1,0.98,"O=[N+]([O-])c1ccc(-c2csc(N/N=C/C3CC3)n2)cc1 [Compound 3j, (E)-2-(2-(Cyclopropylmethylene)hydrazinyl)-4-(4-nitrophenyl)thiazole]"

# System: C. krusei
# Assay: Broth microdilution MIC/MFC, clinical isolate
# Assay type: cell-based
# Details: Pichia kudriavzevii; C. krusei clinical strain; read-out: MFC
# Source text: as §1, §2
row,SMILES,MFC [µg/mL]
1,"O=[N+]([O-])c1ccc(-c2csc(N/N=C/C3CC3)n2)cc1 [Compound 3j, (E)-2-(2-(Cyclopropylmethylene)hydrazinyl)-4-(4-nitrophenyl)thiazole]",0.12

# Same assay, conditions: Pichia kudriavzevii; C. krusei clinical strain; read-out: MIC
row,MIC [µg/mL],SMILES
1,0.06,"O=[N+]([O-])c1ccc(-c2csc(N/N=C/C3CC3)n2)cc1 [Compound 3j, (E)-2-(2-(Cyclopropylmethylene)hydrazinyl)-4-(4-nitrophenyl)thiazole]"

# System: C. glabrata
# Assay: Broth microdilution MIC/MFC, clinical isolate
# Assay type: cell-based
# Details: Nakaseomyces glabratus; C. glabrata clinical strain; read-out: MFC
# Source text: as §1, §2
row,SMILES,MFC [µg/mL]
1,"O=[N+]([O-])c1ccc(-c2csc(N/N=C/C3CC3)n2)cc1 [Compound 3j, (E)-2-(2-(Cyclopropylmethylene)hydrazinyl)-4-(4-nitrophenyl)thiazole]",> 1000

# Same assay, conditions: Nakaseomyces glabratus; C. glabrata clinical strain; read-out: MIC
row,MIC [µg/mL],SMILES
1,125,"O=[N+]([O-])c1ccc(-c2csc(N/N=C/C3CC3)n2)cc1 [Compound 3j, (E)-2-(2-(Cyclopropylmethylene)hydrazinyl)-4-(4-nitrophenyl)thiazole]"

# System: C. lambica
# Assay: Broth microdilution MIC/MFC, clinical isolate
# Assay type: cell-based
# Details: Pichia fermentans; C. lambica clinical strain; read-out: MFC
# Source text: as §1, §2
row,SMILES,MFC [µg/mL]
1,"O=[N+]([O-])c1ccc(-c2csc(N/N=C/C3CC3)n2)cc1 [Compound 3j, (E)-2-(2-(Cyclopropylmethylene)hydrazinyl)-4-(4-nitrophenyl)thiazole]",> 1000

# Same assay, conditions: Pichia fermentans; C. lambica clinical strain; read-out: MIC
row,MIC [µg/mL],SMILES
1,250,"O=[N+]([O-])c1ccc(-c2csc(N/N=C/C3CC3)n2)cc1 [Compound 3j, (E)-2-(2-(Cyclopropylmethylene)hydrazinyl)-4-(4-nitrophenyl)thiazole]"

# System: C. guilliermondii
# Assay: Broth microdilution MIC/MFC, clinical isolate
# Assay type: cell-based
# Details: Meyerozyma guilliermondii; C. guilliermondii clinical strain; read-out: MFC
# Source text: as §1, §2
row,SMILES,MFC [µg/mL]
1,"O=[N+]([O-])c1ccc(-c2csc(N/N=C/C3CC3)n2)cc1 [Compound 3j, (E)-2-(2-(Cyclopropylmethylene)hydrazinyl)-4-(4-nitrophenyl)thiazole]",0.98

# Same assay, conditions: Meyerozyma guilliermondii; C. guilliermondii clinical strain; read-out: MIC
row,MIC [µg/mL],SMILES
1,0.24,"O=[N+]([O-])c1ccc(-c2csc(N/N=C/C3CC3)n2)cc1 [Compound 3j, (E)-2-(2-(Cyclopropylmethylene)hydrazinyl)-4-(4-nitrophenyl)thiazole]"

# System: Toxoplasma gondii RH strain
# Assay: [3H]-uracil incorporation assay in VERO host cells
# Details: Toxoplasma gondii, Vero, read-out: IC50 anti-Tg
row,SMILES,IC50 [µg/mL]
1,"O=[N+]([O-])c1ccc(-c2csc(N/N=C/C3CC3)n2)cc1 [Compound 3j, (E)-2-(2-(Cyclopropylmethylene)hydrazinyl)-4-(4-nitrophenyl)thiazole]",21.8

# Same assay, conditions: Toxoplasma gondii, Vero, read-out: Proliferation of Toxoplasma gondii RH strain ± SD
SMILES,activity at 0.98 µg/mL [%],activity at 1.95 µg/mL [%],activity at 3.91 µg/mL [%],activity at 7.81 µg/mL [%],activity at 15.63 µg/mL [%],activity at 20 µg/mL [%],activity at 25 µg/mL [%],activity at 31.25 µg/mL [%]
"O=[N+]([O-])c1ccc(-c2csc(N/N=C/C3CC3)n2)cc1 [Compound 3j, (E)-2-(2-(Cyclopropylmethylene)hydrazinyl)-4-(4-nitrophenyl)thiazole]",91 ± 2.47,94.44 ± 0.34,97.1 ± 4.63,96.7 ± 3.29,60 ± 7.86,58.8 ± 1.67,40.3 ± 1.53,35.1 ± 424
